According to patent US8686024B2, “Indoline derivatives” (priority 2009, dated 2014):
“Also recorded” adds a separate entry of the source. Where two headings read alike, the source gives them in different places.

Columns and labels:
[1] = target: T1, butyrylcholine esterase (BuChE) (Mus musculus, UniProt Q03311); assay: In vitro assay for choline esterase inhibition (Ellman method), butyrylthiocholine substrate, mouse serum; assay type: biochemical; settings: for Ratio AChE/BuChE: selectivity for BuChE inhibition: IC50 (AchE)/IC50 (BuChE)
T1 construct: brain homogenate and serum of mouse were used as choline esterase enzyme sources; from tissue; host or cells: mouse serum
T1 sequence (Q03311 30-603): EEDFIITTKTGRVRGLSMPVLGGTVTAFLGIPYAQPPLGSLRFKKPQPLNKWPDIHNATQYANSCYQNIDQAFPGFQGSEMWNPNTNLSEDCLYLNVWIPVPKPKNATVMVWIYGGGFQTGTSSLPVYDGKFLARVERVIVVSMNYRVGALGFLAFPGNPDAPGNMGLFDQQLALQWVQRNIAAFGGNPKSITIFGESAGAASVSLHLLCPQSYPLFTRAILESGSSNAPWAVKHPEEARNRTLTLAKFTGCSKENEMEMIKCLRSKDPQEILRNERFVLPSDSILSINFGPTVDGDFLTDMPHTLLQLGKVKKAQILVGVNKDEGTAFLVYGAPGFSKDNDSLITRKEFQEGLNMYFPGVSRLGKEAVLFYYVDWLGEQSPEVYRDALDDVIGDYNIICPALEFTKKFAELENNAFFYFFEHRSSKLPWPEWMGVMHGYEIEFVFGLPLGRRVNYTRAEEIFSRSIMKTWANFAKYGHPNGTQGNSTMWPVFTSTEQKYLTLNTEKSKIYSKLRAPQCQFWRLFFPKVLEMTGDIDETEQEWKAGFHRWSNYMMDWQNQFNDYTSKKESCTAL
How it was run: (§1)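 Enzyme sources were mouse brain homogenate for AChE (acetylthiocholine substrate) and mouse serum for BuChE (butyrylthiocholine substrate). Compounds were diluted in DMSO and incubated with substrate and DTNB, and the thiocholine–DTNB product was read at 415 nm (Ellman method). Selectivity was taken as IC50(AChE)/IC50(BuChE).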

[2] = target: T2, acetylcholine esterase (AChE) (Mus musculus, UniProt P21836); assay: In vitro assay for choline esterase inhibition (Ellman method), acetylthiocholine substrate, mouse brain homogenate; assay type: biochemical
T2 construct: brain homogenate and serum of mouse were used as choline esterase enzyme sources; from tissue; host or cells: mouse brain homogenate
T2 sequence (P21836 32-614): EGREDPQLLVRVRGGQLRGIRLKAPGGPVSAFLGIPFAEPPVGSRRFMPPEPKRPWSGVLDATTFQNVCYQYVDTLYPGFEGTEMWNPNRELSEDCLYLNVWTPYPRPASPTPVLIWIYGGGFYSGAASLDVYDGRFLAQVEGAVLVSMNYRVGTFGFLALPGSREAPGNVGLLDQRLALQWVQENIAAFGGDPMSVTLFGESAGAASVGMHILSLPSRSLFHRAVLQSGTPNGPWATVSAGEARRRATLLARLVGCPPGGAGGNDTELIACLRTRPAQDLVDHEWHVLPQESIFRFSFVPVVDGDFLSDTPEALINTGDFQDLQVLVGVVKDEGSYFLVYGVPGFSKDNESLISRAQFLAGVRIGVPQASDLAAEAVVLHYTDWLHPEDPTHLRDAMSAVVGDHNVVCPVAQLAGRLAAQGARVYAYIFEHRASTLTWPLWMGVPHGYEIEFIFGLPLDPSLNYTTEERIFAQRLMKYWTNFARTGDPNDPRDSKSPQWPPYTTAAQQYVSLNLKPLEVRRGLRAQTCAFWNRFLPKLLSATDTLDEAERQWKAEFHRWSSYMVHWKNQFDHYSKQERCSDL
How it was run: as §1

Compound	IC50 [1]	Ratio AChE/BuChE [1]	selectivity to butyrylcholinesterase (BuChE versus AChE inhibitory activity), in words ([1]; summary of Tables 1-3)	IC50 [2]	IC50 ([1]; mouse serum, butyrylthiocholine, absorbance at 415 nm, read-out: BuChE inhibitory activity IC50)	IC50 ([2]; mouse brain homogenate, acetylthiocholine, absorbance at 415 nm, read-out: AChE inhibitory activity IC50)	butyrylcholinesterase inhibitory activity, in words ([1]; summary of Tables 1-3)
CC(C)(C)CNC(=O)Oc1ccc2c(c1)CCN2Cc1ccccc1 [Example 153, 1-benzylindolin-5-yl 2,2-dimethylpropylcarbamate]	91 nM	>1100	much higher	> 100000 nM			
O=C(NCC1CCOC1)Oc1ccc2c(c1)CCN2Cc1ccccc1 (centres unmarked) [Example 155, 1-benzylindolin-5-yl 3-tetrahydrofurylmethylcarbamate]		3800	much higher		15 nM	57000 nM	
CN(C)CC(C)(C)CNC(=O)Oc1ccc2c(c1)CCN2Cc1ccccc1 [Example 156, 1-benzylindolin-5-yl 3-dimethylamino-2,2-dimethylpropylcarbamate]	510 nM	>200		> 100000 nM			
CC(=O)NCCC1CN(Cc2ccccc2)c2ccc(OC(=O)Nc3ccc(C(C)C)cc3)cc21 (centres unmarked) [Example 160, 3-(2-acetamidethyl)-1-benzylindolin-5-yl-4-isopropylphenylcarbamate]	550 nM	>180		> 100000 nM			
CCCN(CCC)C(=O)CC1CN(Cc2ccccc2)c2ccc(OC(=O)Nc3ccc(C(C)C)cc3)cc21 (centres unmarked) [Example 161, 1-benzyl-3-(di-n-propylaminocarbonylmethyl)indolin-5-yl 4-isopropylphenylcarbamate]	150 nM	>670		> 100000 nM			
CCCN(CCC)C(=O)CC1c2cc(OC(=O)Nc3ccc(C(C)C)cc3)ccc2N(Cc2ccccc2)C1C (centres unmarked) [Example 162, 1-benzyl-3-(di-n-propylaminocarbonylmethyl)-2-methylindolin-5-yl 4-isopropyl phenylcarbamate]	410 nM	>240		> 100000 nM			
CN(CC1CCCCC1)C(=O)Oc1ccc2c(c1)CCN2Cc1ccccc1 [Example 214, O-(1-benzylindolin-5-yl)-N-(cyclohexylmethyl)-N-methylcarbamate]	51 nM	>2000	much higher	> 100000 nM			
CN(CC1CCCCC1)C(=O)Oc1ccc2c(c1)C(C)(C)CN2Cc1ccccc1 [Example 216, O-(1-benzyl-3,3-dimethylindolin-5-yl)-N-(cyclohexylmethyl)-N-methylcarbamate]	2.4 nM	23000	much higher	54000 nM			
CN(CC1CCOCC1)C(=O)Oc1ccc2c(c1)C(C)(C)CN2Cc1ccccc1 [Example 217, O-(1-benzyl-3,3-dimethylindolin-5-yl)-N-methyl-N-(4-tetrahydropyranylmethyl)carbamate]	0.36 nM	260000	much higher; also recorded: highest selectivity to butyrylcholinesterase	93000 nM			highest butyrylcholinesterase inhibitory activity
CN(CC1CCOCC1)C(=O)Oc1ccc2c(c1)C(C)(C)CN2Cc1ccccn1 [Example 218, N-methyl-O-[1-(2-pyridylmethyl)-3,3-dimethylindolin-5-yl]-N-(4-tetrahydropyranylmethyl)carbamate]	0.66 nM	13000	much higher	8500 nM			
CN(CC1CCOCC1)C(=O)Oc1ccc2c(c1)C(C)(C)CN2Cc1cccnc1 [Example 219, N-methyl-O-[1-(3-pyridylmethyl)-3,3-dimethylindolin-5-yl]-N-(4-tetrahydropyranylmethyl)carbamate]	1.2 nM	17000	much higher	20000 nM			
